Legend:
[1] = Single dose human oral bioavailability study; assay type: in vivo; settings: single oral dose 300 mg DIM, healthy individuals, mean
Protocol: In Part I of the Study, a treatment group was administered a 300 mg dose of DIM from BR-DIM or a 300 mg dose of DIM from crystalline DIM on the first study day, followed by crossover to the other DIM formulation on the second study day, at least 14 days following the first treatment. 3 subjects were given crystalline DIM, 4 subjects were given BR-DIM.
In Part II of the Study, five individuals, four of whom participated in Part I of the Study, were administered a 300 mg dose of DIM from DIM SMEDDS Formulation D. Testing of DIM SMEDDS formula D took place on one day with 5 subjects. The subjects were all healthy, adult volunteers, both male and female, not consuming DIM containing supplements and in a fasting state on study days. […]
The concentrations of DIM in human plasma samples were determined by a validated high-performance liquid chromatography with tandem mass spectrometry (LC-MS/MS) method. […] The analytes were monitored by a Waters Micromass triple quadrupole mass spectrometer (Milford, Mass., USA) using an electrospray probe in the positive ionization mode operating at a cone voltage of 23V for DIM and 13V for the internal standard zileuton. […] The transitions at 129.9>76.8 and 237.1>161.1 were monitored for DIM and zileuton, respectively. […] The lower limit of quantitation (LLOQ) was determined at 10 ng/mL for DIM in human plasma. […]

[2] = Dispersion test in USP dissolution bath (DLS Nicomp, polarized light microscopy); assay type: physicochemical
Protocol: A dispersion test was performed on the miscible formulations in a USP dissolution bath. 830 μL of miscible mixture was introduced in 250 mL of purified water at 37° C. under agitation with a paddle at 100 rpm. Performance criteria were: ease of emulsification, homogeneity and fineness of the dispersion. The fineness of the dispersion was assayed by dynamic light scattering (DLS, Particle Sizing Systems Nicomp). Photomicrographs were obtained of crystals observed during light microscopic observation following 30 minutes of dispersion.
The dispersion of the formulation in 250 mL of water (equivalent to the FDA glass of water) was followed for observance of the precipitation of DIM after 30 minutes and was checked by polarized light microscopy. Study of Formulation “D” lead to the formation of a fine and turbid emulsion with a crystal formation showing particle size distribution of 283±66 nm (volume). […] The advantageous reduction in crystal size for Formulation N compared to Formulation D is attributed, at least in part, to a contribution from Peppermint Oil and low concentration of Polysorbate 80 (see FIG. 4, A, B, and C).

[3] = DIM solubility in excipients (incremental addition, microscopic observation); assay type: physicochemical; settings: olive oil or sunflower oil
Protocol: The first step in this development process was the testing of a variety of excipients chosen as potentially active in solubilizing DIM. […] The method involved weighing of approximately 2 grams of each of the liquid excipients into a small vial. Subsequently, a small amount of DIM was added and the mixture was shaken.
The method involved weighing of approximately 2 grams of each of the liquid excipients into a small vial. Subsequently, a small amount of DIM was added and the mixture was shaken. […] Continued testing of acceptable oil solvents for, e.g., nutritional supplement, self-emulsifying formulations using DIM as a representative DIM-related indole active ingredient included testing of the following oils: […]

[4] = Shake-flask determination of maximum solubility of DIM; assay type: physicochemical; settings: HPLC
Protocol: The solubility was determined as described by Lindenberg et al., 2004, Eur J Pharm Biopharm. 58(2):265-78. […] The vials were incubated at 37±0.5° C. while shaking on a “Polymax 1040” orbital shaker (Heidolph, Schwabach). The samples of the solutions were taken after 4 or 24 hours by pressing the Uniprep® plunger down, diluted as appropriate, and the concentration of DIM was analyzed by HPLC, as described below. The measurements were done in triplicate. The maximum concentration of DIM in aqueous media used in this study was 0.6 μg/ml. […]

[5] = source not stated; cited from earlier work

Question: What does the source list for c1ccc2c(Cc3c[nH]c4ccccc34)c[nH]c2c1 [Crystalline DIM, 3,3′-diindolylmethane]?
Answer: Cmax [1]: 18.1 ng/mL; Particle Size Diameter after Dispersion in Water (nm) ([2]; Malvern Mastersizer, DIM as supplied by BioResponse): 3,010^1 nm; DIM Crystal Characteristics In Water Dispersion ([2]; polarized light microscopy after 30 minutes): Large

Question: For c1ccc2c(Cc3c[nH]c4ccccc34)c[nH]c2c1 [DIM, 3,3′-diindolylmethane], which “ability to dissolve DIM” value [3] is on record?
Answer: very low

Question: What about the “concentration of DIM in Octanol” value [4] of the same compound?
Answer: 2,300 μg/ml

Question: With CC(C)=CCC/C(C)=C/CC/C(C)=C/CC/C(C)=C/CC1=C(C)C(=O)c2ccccc2C1=O [menaquinone-4] as the compound, how does the “Log P of 2nd API drug” value [5] read?
Answer: 10-12

Question: With Vitamin D as the compound, how does the “Log P of 2nd API drug” value [5] read?
Answer: 7.5

Source: patent publication US10799479B2, “Self-emulsifying formulations of DIM-related indoles” (BioResponse, L.L.C., priority 2015, dated 2020)
